Results reported in PubChem BioAssay (NCI).
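These data come from cells grown in 96-well plates and exposed to compound for 48 hours at five concentrations. TGI: concentration producing complete growth inhibition.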

Legend:
Assay in all cases: NCI anticancer screen, dose series, 48 h
[1] = tested on: RPMI-8226 leukemia
[2] = tested on: NCI-H23 lung
[3] = tested on: A498 renal
[4] = tested on: MCF7 breast
[5] = tested on: UACC-62 melanoma
[6] = tested on: EKVX NSCLC
[7] = tested on: NCI/ADR-RES ovarian
[8] = tested on: NCI-H460 lung
[9] = tested on: COLO 205 colon
[10] = tested on: HOP-92 NSCLC
[11] = tested on: T-47D breast
[12] = tested on: SK-OV-3 ovarian
[13] = tested on: M14 melanoma
[14] = tested on: HT29 colon
[15] = tested on: OVCAR-4 ovarian
[16] = tested on: ACHN renal
[17] = tested on: K-562 leukemia
[18] = tested on: KM12 colon
[19] = tested on: SW-620 colon
[20] = tested on: CAKI-1 renal
[21] = tested on: MDA-MB-231 breast
[22] = tested on: CCRF-CEM leukemia
[23] = tested on: SK-MEL-28 melanoma
[24] = tested on: SK-MEL-2 melanoma
[25] = tested on: OVCAR-3 ovarian
[26] = tested on: SF-539 CNS
[27] = tested on: HCT-15 colon
[28] = tested on: OVCAR-8 ovarian
[29] = tested on: MDA-MB-435
[30] = tested on: HS 578T breast
[31] = tested on: SN12C renal
[32] = tested on: HCT-116 colon
[33] = tested on: SNB-19 CNS
[34] = tested on: A549 NSCLC
[35] = tested on: LOX IMVI melanoma
[36] = tested on: HOP-62 NSCLC
[37] = tested on: IGROV1 ovarian
[38] = tested on: PC-3 prostate
[39] = tested on: SF-295 CNS
[40] = tested on: UO-31 renal
[41] = tested on: SR leukemia
[42] = tested on: 786-0 renal
[43] = tested on: MALME-3M melanoma
[44] = tested on: NCI-H226 lung
[45] = tested on: OVCAR-5 ovarian
[46] = tested on: SK-MEL-5 melanoma
[47] = tested on: U251 CNS
[48] = tested on: DU-145 prostate
[49] = tested on: UACC-257 melanoma
[50] = tested on: SNB-75 CNS
[51] = tested on: TK-10 renal
[52] = tested on: HCC-2998 colon
[53] = tested on: SF-268 CNS
[54] = tested on: RXF 393 renal
[55] = tested on: MOLT-4 leukemia
[56] = tested on: MDA-N
[57] = tested on: HL-60(TB) leukemia

For `CCCC(=O)O[C@H]1C=C2C[C@@]34SS[C@]5(CC6=C[C@H](OC(C)=O)[C@@H]7O[C@@H]7[C@H]6N5C3=O)C(=O)N4[C@@H]2[C@H]2O[C@H]21`, the TGI [1] was 2290 nM, the TGI [2] was 291 nM and the TGI [3] was 69.7 nM. It also gave a TGI [4] of 226 nM, a TGI [5] of 85.1 nM and a TGI [6] of 29.4 nM. The TGI [7] was 442 nM, the TGI [8] was 379 nM and the TGI [9] was 63.7 nM. For the same molecule, the TGI [10] was 94.1 nM, the TGI [11] was 605 nM and the TGI [12] was 3210 nM. For the same molecule, the TGI [13] was 54.5 nM, the TGI [14] was 16.6 nM and the TGI [15] was 887 nM. It also gave a TGI [16] of 39.1 nM, a TGI [17] of 5830 nM and a TGI [18] of 2290 nM. For the same molecule, the TGI [19] was 671 nM, the TGI [20] was 1090 nM and the TGI [21] was 246 nM. The TGI [22] was 8410 nM, the TGI [23] was 235 nM and the TGI [24] was 296 nM. It also gave a TGI [25] of 31.4 nM, a TGI [26] of 932 nM and a TGI [27] of 1430 nM. The TGI [28] was 907 nM, the TGI [29] was 24.1 nM and the TGI [30] was 18600 nM. For the same molecule, the TGI [31] was 11.1 nM, the TGI [32] was 28.5 nM and the TGI [33] was 1430 nM. For the same molecule, the TGI [34] was 1680 nM, the TGI [35] was 131 nM and the TGI [36] was 89.2 nM. For the same molecule, the TGI [37] was 49.9 nM, the TGI [38] was 61.1 nM and the TGI [39] was 1350 nM. For the same molecule, the TGI [40] was 173 nM, the TGI [41] was 50000 nM and the TGI [42] was 8.41 nM. The TGI [43] was 23.9 nM, the TGI [44] was 1770 nM and the TGI [45] was 251 nM. The TGI [46] was 655 nM, the TGI [47] was 113 nM and the TGI [48] was 362 nM. For the same molecule, the TGI [49] was 74.6 nM, the TGI [50] was 331 nM and the TGI [51] was 240 nM. The TGI [52] was 19.4 nM, the TGI [53] was 119 nM and the TGI [54] was 71.3 nM. For the same molecule, the TGI [55] was 1910 nM, the TGI [56] was 31.4 nM and the TGI [57] was 2710 nM.
